Several values for one entry are separate records, joined by “and”; a condition that tells them apart may be missing. Equal values may be shown once. Inconclusive results and toxic doses are left out. The calls were made as follows: active = survival T/C of 150% or more; inactive = T/C below 125% in these data.
Tested on: AKR/Lw mice, AKR lymphoma ip, median survival T/C
Assay: NCI In Vivo Anticancer Drug Screen. Data for tumor model Lymphoma AKR (Transplanted) (intraperitoneal) in AKR/Lw mice
Details: endpoint: median survival time, higher = longer survival
Description: The antitumor activity of compounds was measured in mice bearing transplantable tumors. Survival or tumor size were measured and the results are expressed as the measurement made in the treated group (T) divided by the measurement made in the vehicle treated control group (C). The tumor model used in this assay is Lymphoma AKR (Transplanted) (intraperitoneal) in AKR/Lw mice

[1] = dose: 12.0 mg/kg/injection, schedule: Q01DX001 (ip), vehicle: saline
[2] = dose: 12.5 mg/kg/injection, schedule: Q04DX003 (ip), vehicle: saline
[3] = dose: 25.0 mg/kg/injection, schedule: Q01DX001 (ip), vehicle: saline
[4] = dose: 25.0 mg/kg/injection, schedule: Q04DX003 (ip), vehicle: saline
[5] = dose: 50.0 mg/kg/injection, schedule: Q01DX001 (ip), vehicle: saline
[6] = dose: 6.0 mg/kg/injection, schedule: Q01DX001 (ip), vehicle: saline
[7] = dose: 400.0 mg/kg/injection, schedule: Q01DX001 (ip), vehicle: saline with Tween-80
[8] = dose: 100.0 mg/kg/injection, schedule: Q01DX001 (ip), vehicle: Klucel (hydroxypropylcellulose) (HPC)
[9] = dose: 200.0 mg/kg/injection, schedule: Q01DX001 (ip), vehicle: Klucel (hydroxypropylcellulose) (HPC)
[10] = dose: 400.0 mg/kg/injection, schedule: Q01DX001 (ip), vehicle: Klucel (hydroxypropylcellulose) (HPC)
[11] = dose: 0.5 mg/kg/injection, schedule: Q04DX003 (ip), vehicle: saline
[12] = dose: 1.0 mg/kg/injection, schedule: Q04DX003 (ip), vehicle: saline
[13] = dose: 10.0 mg/kg/injection, schedule: Q04DX003 (ip), vehicle: saline
[14] = dose: 15.0 mg/kg/injection, schedule: Q01DX009 (ip), vehicle: saline

Measured: T/C

Cn1c(O)c(C=N)c(=O)n(C)c1=O
inactive: [1] 102 % of control | [2] 97 % of control | [3] 105 % of control | [4] 100 % of control | [5] 100 % of control | dose: 50.0 mg/kg/injection, schedule: Q04DX003 (ip), vehicle: saline 100 % of control

CN(C)CCCc1c2ccccc2nc2ccc(Cl)cc12
inactive: [6] 100 % of control | [1] 103 % of control | [3] 109 % of control

O=C[C@@H](CO)O[C@H](C=O)n1cnc2c(=O)[nH]cnc21
active: dose: 240.02 mg/kg/injection, schedule: Q04DX003 (ip), vehicle: water 222 % of control
103 % of control and 238 % of control: dose: 75.0 mg/kg/injection, schedule: Q01DX009 (ip), vehicle: saline
inactive: dose: 3.0 mg/kg/injection, schedule: Q01DX009 (ip), vehicle: saline 104 % of control and 123 % of control | dose: 6.0 mg/kg/injection, schedule: Q01DX009 (ip), vehicle: saline 102 % of control and 108 % of control and 121 % of control | dose: 6.2 mg/kg/injection, schedule: Q04DX003 (ip), vehicle: saline 102 % of control | dose: 6.25 mg/kg/injection, schedule: Q01DX009 (ip), vehicle: saline 112 % of control | dose: 12.0 mg/kg/injection, schedule: Q01DX009 (ip), vehicle: saline 100 % of control and 112 % of control | dose: 12.5 mg/kg/injection, schedule: Q01DX009 (ip), vehicle: saline 94 % of control and 106 % of control | [2] 100 % of control and 105 % of control | dose: 24.0 mg/kg/injection, schedule: Q01DX009 (ip), vehicle: saline 112 % of control | [3] 89 % of control and 105 % of control | [4] 87 % of control and 113 % of control | [5] 89 % of control | dose: 60.0 mg/kg/injection, schedule: Q04DX003 (ip), vehicle: water 114 % of control | dose: 100.0 mg/kg/injection, schedule: Q01DX001 (ip), vehicle: saline 92 % of control and 97 % of control (2×) | dose: 500.0 mg/kg/injection, schedule: Q01DX001 (ip), vehicle: saline 120 % of control

CC(=O)CC(=O)Nc1ccc([N+](=O)[O-])cc1
inactive: dose: 50.0 mg/kg/injection, schedule: Q01DX001 (ip), vehicle: other 100 % of control | dose: 100.0 mg/kg/injection, schedule: Q01DX001 (ip), vehicle: other 98 % of control | dose: 100.0 mg/kg/injection, schedule: Q01DX001 (ip), vehicle: saline with Tween-80 96 % of control | dose: 200.0 mg/kg/injection, schedule: Q01DX001 (ip), vehicle: other 94 % of control | dose: 400.0 mg/kg/injection, schedule: Q01DX001 (ip), vehicle: other 86 % of control | [7] 92 % of control

CC(=O)CCN1C(=O)c2ccccc2C1=O
inactive: [8] 105 % of control | [9] 105 % of control | dose: 200.0 mg/kg/injection, schedule: Q04DX003 (ip), vehicle: Klucel (hydroxypropylcellulose) (HPC) 97 % of control | [10] 102 % of control | dose: 400.0 mg/kg/injection, schedule: Q04DX003 (ip), vehicle: Klucel (hydroxypropylcellulose) (HPC) 89 % of control

CN(C)C(=O)c1cccc(COc2ccc(N3C(N)=NC(N)=NC3(C)C)cc2Cl)c1
inactive: dose: 0.25 mg/kg/injection, schedule: Q04DX003 (ip), vehicle: saline 105 % of control | [11] 108 % of control | [12] 97 % of control | dose: 1.2 mg/kg/injection, schedule: Q01DX009 (ip), vehicle: saline 100 % of control | dose: 1.25 mg/kg/injection, schedule: Q01DX009 (ip), vehicle: saline 106 % of control | dose: 2.0 mg/kg/injection, schedule: Q04DX003 (ip), vehicle: saline 114 % of control | dose: 3.1 mg/kg/injection, schedule: Q01DX009 (ip), vehicle: saline 100 % of control | dose: 4.0 mg/kg/injection, schedule: Q04DX003 (ip), vehicle: saline 114 % of control | dose: 6.2 mg/kg/injection, schedule: Q01DX009 (ip), vehicle: saline 94 % of control and 97 % of control and 108 % of control | dose: 8.0 mg/kg/injection, schedule: Q04DX003 (ip), vehicle: water 100 % of control | [13] 105 % of control | [1] 112 % of control | [14] 112 % of control | dose: 16.0 mg/kg/injection, schedule: Q04DX003 (ip), vehicle: water 109 % of control | dose: 18.0 mg/kg/injection, schedule: Q04DX003 (ip), vehicle: saline 109 % of control | [3] 112 % of control | dose: 32.0 mg/kg/injection, schedule: Q04DX003 (ip), vehicle: water 120 % of control | dose: 35.0 mg/kg/injection, schedule: Q04DX003 (ip), vehicle: saline 116 % of control and 120 % of control | dose: 37.5 mg/kg/injection, schedule: Q04DX003 (ip), vehicle: saline 116 % of control | dose: 64.0 mg/kg/injection, schedule: Q04DX003 (ip), vehicle: water 105 % of control

COc1cccc(CNc2cccc(Cl)c2Cl)c1OC
inactive: dose: 200.0 mg/kg/injection, schedule: Q01DX001 (ip), vehicle: saline with Tween-80 93 % of control and 100 % of control | [7] 93 % of control and 113 % of control

COC(=O)C1(C)CCC(c2ccc(OC)cc2)C(CC(=O)O)C1=O (stereo not drawn)
inactive: dose: 50.0 mg/kg/injection, schedule: Q04DX003 (ip), vehicle: Klucel (hydroxypropylcellulose) (HPC) 100 % of control | [8] 100 % of control | dose: 100.0 mg/kg/injection, schedule: Q04DX003 (ip), vehicle: Klucel (hydroxypropylcellulose) (HPC) 100 % of control | [9] 113 % of control | [10] 105 % of control

S=P(N1CC1)(N1CC1)N1CC1
inactive: dose: 0.1 mg/kg/injection, schedule: Q01DX009 (ip), vehicle: saline 110 % of control | dose: 0.25 mg/kg/injection, schedule: Q01DX009 (ip), vehicle: saline 87 % of control | dose: 0.5 mg/kg/injection, schedule: Q01DX009 (ip), vehicle: saline 90 % of control | [11] 117 % of control | dose: 1.0 mg/kg/injection, schedule: Q01DX009 (ip), vehicle: saline 108 % of control and 112 % of control and 117 % of control | [12] 120 % of control | dose: 1.2 mg/kg/injection, schedule: Q04DX003 (ip), vehicle: saline 100 % of control | dose: 1.5 mg/kg/injection, schedule: Q01DX001 (ip), vehicle: saline 106 % of control | dose: 2.0 mg/kg/injection, schedule: Q01DX009 (ip), vehicle: saline 111 % of control | dose: 2.5 mg/kg/injection, schedule: Q01DX001 (ip), vehicle: saline 104 % of control | dose: 2.5 mg/kg/injection, schedule: Q04DX003 (ip), vehicle: saline 87 % of control and 112 % of control and 117 % of control | dose: 3.0 mg/kg/injection, schedule: Q01DX001 (ip), vehicle: saline 109 % of control | dose: 3.0 mg/kg/injection, schedule: Q04DX003 (ip), vehicle: saline 122 % of control | dose: 3.75 mg/kg/injection, schedule: Q01DX009 (ip), vehicle: saline 116 % of control | dose: 5.0 mg/kg/injection, schedule: Q01DX001 (ip), vehicle: saline 95 % of control and 100 % of control and 103 % of control | [6] 104 % of control and 106 % of control | dose: 6.2 mg/kg/injection, schedule: Q01DX001 (ip), vehicle: saline 118 % of control | dose: 6.25 mg/kg/injection, schedule: Q01DX001 (ip), vehicle: saline 123 % of control | dose: 7.5 mg/kg/injection, schedule: Q01DX001 (ip), vehicle: saline 102 % of control and 116 % of control | dose: 7.5 mg/kg/injection, schedule: Q01DX009 (ip), vehicle: saline 105 % of control | dose: 10.0 mg/kg/injection, schedule: Q01DX001 (ip), vehicle: saline 111 % of control | [13] 87 % of control | [14] 88 % of control | dose: 16.0 mg/kg/injection, schedule: Q04DX003 (ip), vehicle: saline 97 % of control | dose: 12.0 micrograms/kg/injection, schedule: Q01DX009 (ip), vehicle: saline 111 % of control | dose: 12.5 micrograms/kg/injection, schedule: Q01DX009 (ip), vehicle: saline 102 % of control | dose: 25.0 micrograms/kg/injection, schedule: Q01DX009 (ip), vehicle: saline 100 % of control and 111 % of control | dose: 50.0 micrograms/kg/injection, schedule: Q01DX009 (ip), vehicle: saline 105 % of control | dose: 100.0 micrograms/kg/injection, schedule: Q01DX009 (ip), vehicle: saline 94 % of control and 108 % of control | dose: 200.0 micrograms/kg/injection, schedule: Q01DX009 (ip), vehicle: saline 102 % of control
